O=C1c2cccc(O)c2C(=O)c2c(O)cc(CO)cc21
solubility (mole fraction)
Details | 278.15 K | 283.15 K | 288.15 K | 293.15 K | 298.15 K | 303.15 K | 308.15 K | 313.15 K | 318.15 K
in ethanol | 1.72e-05 | 2.11e-05 | 2.45e-05 | 3.09e-05 | 3.74e-05 | 4.36e-05 | 5.05e-05 | 6.2e-05 | 7.56e-05
in methanol | 1.66e-06 | 2.23e-06 | 3.1e-06 | 4.29e-06 | 5.39e-06 | 7.71e-06 | 1.13e-05 | 1.6e-05 | 2.33e-05
in n-butanol | 4.59e-05 | 5.17e-05 | 6.49e-05 | 7.71e-05 | 9.05e-05 | 0.000102 | 0.000122 | 0.000137 | 0.00016
in n-pentanol | 7e-05 | 8.33e-05 | 0.0001 | 0.000118 | 0.000138 | 0.000158 | 0.00018 | 0.000207 | 0.000245
in n-propanol | 1.82e-05 | 2.49e-05 | 3.07e-05 | 4e-05 | 5.26e-05 | 6.56e-05 | 7.38e-05 | 9.21e-05 | 0.000116
in sec-butanol | 1.62e-05 | 2.05e-05 | 2.71e-05 | 3.67e-05 | 4.52e-05 | 5.44e-05 | 6.76e-05 | 8.02e-05 | 9.79e-05
in water | 2.2e-07 | 3.21e-07 | 4.43e-07 | 5.69e-07 | 8.07e-07 | 1.21e-06 | 1.64e-06 | 2.22e-06 | 2.82e-06
